{
  "source": "patent US20200281208A1",
  "about": "(ISAGRO S.p.A., priority 2015, published 2020)",
  "format_in_all_cases": "in vivo",
  "key": {"[1]": {"test_system": "Pseudomonas syringae pv tomato", "test": "Biological evaluation of cupric salts of carboxylic acids on Pseudomonas syringae pv tomato, tomato plants in cold greenhouse (Example 10, comparative)", "conditions": "250 ppm a.i., survey 7 days after infection/treatment, 10 plants per plot", "source_text": "Biological Evaluation of Cupric Salts of Carboxylic Acids on Pseudomonas syringae pv tomato\nA comparison was effected between the bactericidal activity of various cupric salts of carboxylic acids described in patent application US2009/136581 with that of crystalline foiin 1.\n(§1) The day after application, the plants were infected with a suspension of bacterial cells previously cultivated in Nutrient Broth culture broth, at a bacterium-broth concentration of 1:4.\n(§2) The inoculum, kept under stirring for 2 days, was sprayed on the plants in the morning, in guttation phase, with knapsack sprayers.\n(§3) Visual surveys were effected 7 days after each infection/treatment, analyzing 10 plants per plot, analyzing the percentage of leaf surface affected."}, "Tomato plants": {"test_system": "Tomato plants", "test": "Phytotoxicity on treated tomato plants (Example 10, comparative)", "conditions": "250 ppm a.i.", "source_text": "as §3"}, "[2]": {"test_system": "Pseudomonas syringae pv tomato", "conditions": "survey 7 days after infection/treatment; for Leaf surface affected (%): tomato plants", "source_text": "Biological Evaluation of the […] of […] on Pseudomonas syringae pv tomato\nIn the above table, SC is an abbreviation of “concentrated aqueous suspension” and TQ of “as such”.\nas §1, §2\nVisual surveys were effected 7 days after each infection/treatment, analyzing 50 plants per plot, analyzing the percentage of plants infected and the percentage of leaf surface affected."}},
  "note": "Where two headings read alike, the source gives them in different places.",
  "data": [
    {"smiles": "O=C(O)CCCC(=O)O.[Cu]", "note": "[Copper glutarate]", "values": [
      {"measurement": "Leaf surface affected (%)", "setting": "[1]", "result": 69, "unit": "%"},
      {"measurement": "Phytotoxicity (%)", "setting": "Tomato plants", "result": 0, "unit": "%"}
    ]},
    {"smiles": "O=C(O)CC(O)C(=O)O.[Cu]", "note": "(centres unmarked) [Copper malate]", "values": [
      {"measurement": "Leaf surface affected (%)", "setting": "[1]", "result": 5, "unit": "%"},
      {"measurement": "Phytotoxicity (%)", "setting": "Tomato plants", "result": 20, "unit": "%"}
    ]},
    {"smiles": "O=C(O)CCC(=O)O.[Cu]", "note": "[Copper succinate]", "values": [
      {"measurement": "Leaf surface affected (%)", "setting": "[1]", "result": 50, "unit": "%"},
      {"measurement": "Phytotoxicity (%)", "setting": "Tomato plants", "result": 0, "unit": "%"}
    ]},
    {"smiles": "O=C([O-])C(O)C(O)C(=O)[O-].[Cu+2]", "note": "(centres unmarked) [Copper tartrate]", "values": [
      {"measurement": "Leaf surface affected (%)", "setting": "[1]", "result": 69, "unit": "%"},
      {"measurement": "Phytotoxicity (%)", "setting": "Tomato plants", "result": 0, "unit": "%"}
    ]},
    {"smiles": "[Cu+2].[OH-].[OH-]", "note": "[Cu(OH)2, copper hydroxide]", "values": [
      {"measurement": "Quantity infected plants (%)", "setting": "[2]; 6.25 g a.i./100 l", "result": 37.5, "unit": "%"},
      {"measurement": "Quantity infected plants (%)", "setting": "[2]; 12.5 g a.i./100 l", "result": 35.7, "unit": "%"},
      {"measurement": "Quantity infected plants (%)", "setting": "[2]; 25 g a.i./100 l, 500 l per hectare, 50 plants per plot", "result": 31.0, "unit": "%"},
      {"measurement": "Leaf surface affected (%)", "setting": "[2]; 6.25 g a.i./100 l", "result": 3.4, "unit": "%"},
      {"measurement": "Leaf surface affected (%)", "setting": "[2]; 12.5 g a.i./100 l", "result": 4.9, "unit": "%"},
      {"measurement": "Leaf surface affected (%)", "setting": "[2]; 25 g a.i./100 l, 500 l per hectare", "result": 3.9, "unit": "%"}
    ]},
    {"smiles": "O=C(O)c1ccccc1O", "note": "[Salicylic acid]", "values": [
      {"measurement": "Quantity infected plants (%)", "setting": "[2]; 13.6 g a.i./100 l", "result": 40.7, "unit": "%"},
      {"measurement": "Quantity infected plants (%)", "setting": "[2]; 27.2 g a.i./100 l", "result": 31.5, "unit": "%"},
      {"measurement": "Quantity infected plants (%)", "setting": "[2]; 54.2 g a.i./100 l", "result": 36.3, "unit": "%"},
      {"measurement": "Leaf surface affected (%)", "setting": "[2]; 13.6 g a.i./100 l", "result": 4.7, "unit": "%"},
      {"measurement": "Leaf surface affected (%)", "setting": "[2]; 27.2 g a.i./100 l", "result": 3.9, "unit": "%"},
      {"measurement": "Leaf surface affected (%)", "setting": "[2]; 54.2 g a.i./100 l", "result": 3.5, "unit": "%"}
    ]}
  ]
}
